# Legend:
# Type in all cases: cell-based
# [1] = test system: Human diploid fibroblasts BJ; assay: Viability of human diploid fibroblasts by MTT assay; conditions: 0-25 μM, 72 hours, BJ passage 19
# Experimental: MTT is a standard colorimetric assay for measurement of proliferation and survival of the cells. Yellow MTT is reduced into violet formazan in metabolically active cells. The amount of the resulting formazan is measured by spectrophotometry. Human diploid fibroblasts BJ (passage 19) were seeded in 96-well plate (5.000 cells per well). After 6 hours, the cultivation medium (DMEM containing 5 g/l glucose, 2 mM glutamine, 100 U/ml penicillin, 100 μg/ml streptomycin and 10% fetal calf serum) was removed and fresh medium containing a test compound in concentrations 0-25 μM was added. Each concentration was tested in 5 replicates. MTT was added to the cells after 72 hours into final concentration of 0.5 mg/ml. Incubation time was 3 hours.
# [2] = test system: Senescent human diploid fibroblasts SNF25; assay: Effect on senescent human diploid fibroblasts (cell number); conditions: 0-12.5 μM, days 7 and 14, SNF25 passage 53
# Experimental: Senescent human diploid fibroblasts SNF25 (passage 53) were seeded in 24-well plate (10.000 cells/well). The cultivation medium (DMEM containing 5 g/l glucose, 2 mM glutamin, 100 U/ml penicillin, […] streptomycin and 10% fetal calf serum) was removed and replaced with the cultivation medium containing test compound in concentration range of 0-12.5 μM. Each concentration was tested in triplicate. The cell numbers were determined on days 7 and 14.
# [3] = test system: Human diploid fibroblasts SNF25; assay: In vitro toxicity by evaluation of growth curve; conditions: 0-12.5 μM, 12 days, SNF25 passage 27
# Experimental: Human diploid fibroblasts SNF25 (passage 27) were seeded in 24-well plate (10.000 cells/well). The cultivation medium (DMEM containing 5 g/l glucose, 2 mM glutamin, 100 U/ml penicillin, 100 μg/ml streptomycin and 10% fetal calf serum) was removed and replaced with the cultivation medium containing the tested compound in concentration range of 0-12.5 μM. Each concentration was tested in triplicate. The cell number was counted during next 12 days.
# [4] = test system: Human diploid fibroblasts HCA; assay: Anti-aging activity: senescence-associated beta-galactosidase in human fibroblasts
# Experimental: In this example, effects of the compounds of this invention on the activity of a senescence biomarker senescence-associated β-galactosidase was studied. Human diploid fibroblasts HCA of various passage levels were used for this purpose. The tested compounds were added to the medium at each passage. After the incubation period, cells were washed with PBS and fixed with 2% formaldehyde and 0.2% glutaraldehyde in PBS. After another wash with PBS, they were incubated with the staining solution comprising potassium ferricyanide (5 mM), potassium ferrocyanide (5 mM), MgCl2 (2 mM), X-gal (5-bromo-4-chloro-3-indolyl-β-D-galactopyranoside) (1 mg/ml), in citric/phosphate buffer (pH 6.0) at 37° C. (without CO2) for at least 1 hour. Following the incubation period, the numbers of cells expressing senescence-associated β-galactosidase (blue cells) were counted using light microscope.
SMILES,viability of cells (MTT) [1],cell number (cell survival) [2],growth curve (cell number) [3],"Senescent Cells (%) HCA passage 25 ([4]; passage 25, cells expressing senescence-associated beta-galactosidase) [%]","Senescent Cells (%) HCA passage 50 ([4]; passage 50, cells expressing senescence-associated beta-galactosidase) [%]","Senescent Cells (%) HCA passage 80 ([4]; passage 80, cells expressing senescence-associated beta-galactosidase) [%]"
"Clc1nc(Nc2ccccc2)c2[nH]cnc2n1 [Compound 1, 2-Chloro-6-anilinopurine]",not toxic for human diploid fibroblasts,does not exert significant negative effect on cell survival,not toxic against human diploid fibroblasts,,,
"c1coc(CNc2ncnc3nc[nH]c23)c1 [Kinetin, 6-furfurylaminopurine, reference compound]",,,,3,5,38
